Each structure is given as a SMILES string. Converted amounts (≈) assume the structure as drawn.

For orientation: IC50 means the concentration needed to halve the response being measured. Low values mean higher potency, high ones lower potency. As usually defined, the IC90 is the concentration needed for an effect of 90%. Lower therefore signals an effect from little substance.

What all share (assay type): functional, cell-based
For one assay, the system named is KB. Briefly: Cytotoxicity against human KB403 cell line by MTT assay. Background: Formazan colour is commonly taken as a measure of viable cells.
The next assay relates to COLO 320DM. Briefly: Cytotoxicity against human COLO320DM cell line by MTT assay.
Another assay has as its system PA-1. Briefly: Cytotoxicity against human PA1 cell line by MTT assay.
The subject of a further assay is Caco-2. Briefly: Cytotoxicity against human Caco-2 cell line by MTT assay.
Another assay relates to WRL68. Briefly: Cytotoxicity against human WRL68 cell line by MTT assay.
The test system of another assay is MCF7. Briefly: Cytotoxicity against MCF7 cell line by MTT assay. As to conditions: Homo sapiens.

Take `c1ccc(-c2coc3ccc4ccccc4c23)cc1`: half-maximal inhibition with KB (IC50) was put at 9 µg/mL (≈ 36.8 µM).
On to `COc1cc(-c2coc3ccc4ccccc4c23)cc(OC)c1OC`, for which the IC50 with COLO 320DM amounted to 0.65 µg/mL (≈ 1.94 µM); in the assay on KB, 8 µg/mL (≈ 23.9 µM); with PA-1 it was 3.5 µg/mL (≈ 10.5 µM); in the assay on Caco-2 it was 0.5 µg/mL (≈ 1.5 µM); in the assay with WRL68, 0.7 µg/mL (≈ 2.09 µM). Also, the IC90 was determined as 4 µg/mL (≈ 12 µM) in the assay on COLO 320DM, 10 µg/mL (≈ 29.9 µM) in the assay with KB, 4.5 µg/mL (≈ 13.5 µM) in the assay on PA-1 and 5 µg/mL (≈ 15 µM) with WRL68.
Turning to `COc1ccc(-c2coc3ccc4ccccc4c23)cc1`, the IC50 is 5 µg/mL (≈ 18.2 µM) with COLO 320DM, 4 µg/mL (≈ 14.6 µM) with PA-1, 0.95 µg/mL (≈ 3.46 µM) with Caco-2 and 6 µg/mL (≈ 21.9 µM) with WRL68. For the same compound, the IC90 stood at 8 µg/mL (≈ 29.2 µM) with PA-1 and 7.5 µg/mL (≈ 27.3 µM) in the assay on Caco-2.
As for `CC(=O)O[C@H]1C(=O)[C@@]2(C)[C@H]([C@H](OC(=O)c3ccccc3)[C@]3(O)C[C@H](OC(=O)[C@H](O)[C@@H](NC(=O)c4ccccc4)c4ccccc4)C(C)=C1C3(C)C)[C@]1(OC(C)=O)CO[C@@H]1C[C@@H]2O` [PACLITAXEL], the IC50 with COLO 320DM came to 0.0045 µg/mL (≈ 0.00527 µM); in the assay on KB it was 0.001 µg/mL (≈ 0.00117 µM); in the assay with PA-1, 0.006 µg/mL (≈ 0.00703 µM); with Caco-2 it was 0.007 µg/mL (≈ 0.0082 µM); with WRL68, 0.0035 µg/mL (≈ 0.0041 µM). Besides, the IC90 worked out at 0.01 µg/mL (≈ 0.0117 µM) in the assay on COLO 320DM; 0.047 µg/mL (≈ 0.055 µM) in the assay on KB; 0.9 µg/mL (≈ 1.05 µM) with PA-1; 0.85 µg/mL (≈ 0.995 µM) with MCF7; 0.065 µg/mL (≈ 0.0761 µM) with Caco-2; 2.5 µg/mL (≈ 2.93 µM) in the assay on WRL68.
